SMILES strings stand for the structures. Where a name gives a salt, the structure may show the parent alone.

One data set relates to Urinary excretion. Description: Diuretic effect in rats (Lipschitz). The format is in vivo. As to conditions: 100 mg/kg orally. The source says:
Diuretic effect (W. LIPSCHITZ J. Pharmacol. Exp. Ther., 79, 97, 1943) in rats.

The next data set relates to Local anesthesia. Description: Local anesthesia (test of J. Regnier). Format: in vivo. The conditions noted are these: 1% solution. The text has this:
Local anesthesia: test of J. Regnier--Doctoral Dissertation, Med., 203 pages, Bruilliard St Dizier, 1929.

In data set [1] the test system is isolated atrium (rabbit right atrium). Description: Effect on the frequency of spontaneous flutterings of the isolated atrium. The conditions noted are these: for inhibition at 10 µg/mL: Oryctolagus cuniculus, 0.4 h, after 24 minutes, 1 mg (per 100 ml), read-out: Percentage of reduction of the frequency. The procedure:
(c) Effect on the frequency of spontaneous flutterings of the isolated atrium. Method: Rabbit right atrium in survival in a Ringer-Locke's solution. The substances to be studied are introduced into the tank (at the rate of 0.5 and 1 mg per 100 ml) and remain in contact with the myocardial tissue for 24 minutes.

For the next data set, the system named is toxicity of pentetrazole. Description: Anticonvulsant property (pentetrazole toxicity in mice). The format is in vivo. As to conditions: orally, 100 mg/kg, pentetrazole subcutaneously. The source says:
Anticonvulsant property (G. CHEN and R. PORTMAN, A.M.A. Arch. Neurol. Psychiat., 68, 498, 1952).

Data set [2] deals with auricular tachycardia produced by aconitine. Description: Auricular tachycardia produced by aconitine in dogs. The format is in vivo. The conditions noted are these: 5 mg/kg. The source says:
(b) Influence on an auricular tachycardia produced by aconitine.
Method: (D. SCHERF--Proc. Soc. exp. Biol., 1947, 64, 233). A tachycardia is caused in dogs by intramural injection of aconitine in the right atrium near the sinusoidal node.
The rhythm is increased in proportions of 80 to 100%. The auriculo-ventricular tracks show normal permeability, the ventricles are driven at the same frequency.

The next data set concerns toxicity to yohimbine. Description: Anti-depressant properties (potentialization of yohimbine toxicity in mice). Format: in vivo. The source says:
Anti-depressant properties (W. J. LANG and S. GORSHORN Arch. Int. Pharmacodyn., 142, 457, 1963).

The nature of the next data set: Solubility in water. The format is physicochemical.
For another data set, the system named is cardiovascular system. Description: Systemic effects in dogs. Format: in vivo. The conditions noted are these: 1, 2 and 5 mg/kg. The method, then:
(3) Systemic effects in dogs
Doses used: 1, 2 and 5 mg/kg
left intraventricular pressure

Data set [3] deals with ventricular tachycardia of digitalic origin. Description: Ventricular tachycardia of digitalic origin (ouabain) in anesthetized dogs. Format: in vivo. The conditions noted are these: doses of 2 and 5 mg/kg. The source says:
(a) Action with respect to ventricular tachycardia of digitalic origin (LUCHESI and HARDMAN--J. Pharmacol. exp. Ther., 1961, No. 132, pages 372 to 81).
Method: Creation of a stable ventricular tachycardia in ten dogs (anesthetized) by successive intravenous injections of ouabain.

For the next data set, the system named is adrenergic receptors. Description: Inhibitory property of the adrenergic receptors (isoprenaline tachycardia in dogs). The format is in vivo. The text has this:
(2) Search for an inhibitory property of the adrenergic receptors
Method: Isoprenaline tachycardia in dogs. Simultaneous recording of the heart rate and of the arterial pressure.

The subject of a further data set is central nervous system. Description: Potentialization of the barbiturate and chloralhydrate anesthesia in mice. The format is in vivo. As to conditions: 100 mg/kg. The source says: Potentialization of the barbiturate and chloralhydrate anesthesia in mice.
In another data set the test system is isolated rabbit atrium. Description: Activity on the electrosystolic entrainment of the isolated rabbit atrium. The conditions noted are these: isolated rabbit right atrium, Ringer-Locke's solution. The method, then:
(d) Activity on the electrosystolic entrainment of the isolated rabbit atrium (G. S. DAWES--Pharmacol. Rev., 4, 43-84, 1952).
Method: Rabbit right atrium in a Ringer-Locke's solution.
After determination of the threshold voltage for the entrainment of the muscle, the latter is subjected to frequencies which increase in successive steps until obtaining a maximum frequency for which the tissue is incapable of responding to the stimuli.
The product is added to the bath. Three electric entrainments are effected in the following 25 minutes. The experiment is then continued for one hour after the rinsing of the tank.

As for `CC(C)(C)NCC(O)COCC1COc2ccccc2O1` (stereo not shown) [Example 1, 3-tertiobutylamino-1-[(1,4-benzodioxan)-2-ylmethoxy]-2-propanol maleate], in the data set on Urinary excretion, the diuretic power entry is recorded as “does not have any diuretic power”. The Urinary excretion in the data set on Urinary excretion (Control 28%) came out at 35%. In the data set with Local anesthesia, the “local anesthetic properties compared with Lidocaine” value was “local anesthetic properties superior to Lidocaine”. Moreover, the inhibition at 10 µg/mL in [1] worked out at 16%. The “chronotropic effect compared with dihydroquinidine” value in [1] (isolated rabbit right atrium, Ringer-Locke's solution) is on record as “definitely a less negative chronotropic effect than dihydroquinidine”. In addition, the “protection from toxicity of pentetrazole” value with toxicity of pentetrazole was “does not protect mice from toxicity of pentetrazole”. Moreover, in data set [2], the “% reduction of auricular tachycardia” value is 60%; the “effect on auricular tachycardia” value was “reduces auricular tachycardia substantially and lastingly”; the “persistence of the effect after injection” value came out at 30 min. In addition, the “potentialization of toxicity to yohimbine” value with toxicity to yohimbine is reported as “No potentialization of toxicity to yohimbine”. The solubility (in general, the concentration that dissolves in the medium under given conditions) in “Solubility in water” is 100 mg/mL. Besides, in the data set on cardiovascular system, the “force of cardiac contraction” value is recorded as “decreases the force of cardiac contraction”; the “impact on the cardiovascular system” value is reported as “little impact on the cardiovascular system”; the peripheral resistances result was “decreases the force of cardiac contraction and the peripheral resistances”. Besides, in data set [3] (ten dogs, ouabain), the “opposition of ectopic rhythm” value is “opposes ectopic rhythm in all the animals”. In data set [3] (in 80% of the cases), the period of activity entry was “more than 30 minutes”. Also, in the data set on adrenergic receptors (5 mg/kg), the beta-blocking effect entry is recorded as “substantial” and the cardioselectivity entry is reported as “cardioselectivity is noted”. In the data set on adrenergic receptors (from 1 mg/kg intravenously), the “reduction of isoprenaline tachycardia” value is reported as “significantly reduces the isoprenaline tachycardia starting with a dose of 1 mg/kg intravenously”. Also, the “Potentialization of the barbiturate and chloralhydrate anesthesia” value with central nervous system is recorded as “nothing to report”. In the data set with isolated rabbit atrium, the “functional refractory period of the isolated atrium” value was “extends the functional refractory period of the isolated atrium in the same way as dihydroquinidine”.
With `CCC1CN2CCC1CC2[C@@H](O)c1ccnc2ccc(OC)cc12` (stereo partly shown) [Dihydroquinidine, reference compound], the inhibition at 10 µg/mL in data set [1] turned out to be 35%.
